Tested on: phosphorylation of MAP kinase (ERK) in murine colon 26 (C26) carcinoma cells
Assay: Cellular assay for measuring MEK inhibition: inhibition of ERK phosphorylation, C26CPA1
Assay type: cell-based
Conditions: Mus musculus, 1 h, C26 cells treated one hour with test compound
Description: (§1) Cellular Assay for Measuring MEK Inhibition
(§2) MEK inhibitors were evaluated by determining their ability to inhibit phosphorylation of MAP kinase (ERK) in murine colon 26 (C26) carcinoma cells. Since ERK1 and ERK2 represent the only known substrates for MEK1 and MEK2, the measurement of inhibition of ERK phosphorylation in cells provides direct read out of cellular MEK inhibition by the compounds of the invention. Detection of phosphorylation of ERK was carried out either by Western blot or ELISA format. Briefly, the assays involve treatment of exponentially growing C26 cells with varying concentrations of the test compound (or vehicle control) for one hour at 35° C. For Western blot assay, cells were rinsed free of compound/vehicle and lysed in a solution containing 50 mM NaCl, 50 mM glycerol phosphate, 10 mM HEPES, pH […], 1% Triton X-100, 1 mM Na3VO4, 100 μM PMSF, 10 μM leupeptin and 10 μM pepstatin. Supernatants were then subjected to gel electrophoresis and hybridized to a primary antibody recognizing dually phosphorylated ERK1 and ERK2. To evaluate total MAPK levels, blots were subsequently ‘stripped’ and re-probed with a 1:1 mixture of polyclonal antibodies recognizing unphosphorylated ERK1 and ERK2. For pERK ELISA assay, pERK TiterZyme Enzyme immunometric Assay kits were acquired from Assay Designs, Inc (Ann Arbor, Mich.). Briefly, cells were harvested in lysis solution containing 50 mM β-glycerophosphate, 10 mM HEPES, pH5.4, 50 mM NaCl, 2mM EDTA and 1% SDS and protein lysates were diluted 1:15 with supplied Assay buffer prior to the execution of the assay. The subsequent steps were carried out essentially as recommended by the manufacturer.
(§3) The inhibition data generated by the above protocol is disclosed in Table I. If several concentrations of inhibitor were tested, IC50 values (the concentration which gives 50% inhiition) were determined graphically from the dose response curve for % inhibition. Otherwise, percent inhibitions at measured concentrations are reported.
(§4) Table I. Cellular Inhibition of ERK Phosphorylation by Compounds of the Invention

| SMILES | IC50 [nM] |
| --- | --- |
| Cc1cc(I)ccc1Nc1c(C(=O)NOCC2CC2)cc2c(ncn2C)c1F [Compound 9] | 12 |
| COC(=O)c1cc2c(ncn2C)c(F)c1Nc1ccc(I)cc1C [Compound 11] | 1000 |
| COC(=O)Cn1cnc2c(F)c(Nc3ccc(I)cc3C)c(C(=O)NOCC3CC3)cc21 [Compound 12] | 22 |
| Cc1cc(I)ccc1Nc1c(C(=O)NOCCO)cc2c(ncn2C)c1F [Compound 13] | 3.4 |
| Cc1cc(I)ccc1Nc1c(C(=O)NOCC(O)CO)cc2c(ncn2C)c1F (stereo not shown) [Compound 15] | 86 |
| Cc1cc(I)ccc1Nc1c(-c2nnc(N)o2)cc2c(ncn2C)c1F [Compound 21] | 268 |
| Cn1cnc2c(F)c(Nc3ccc(I)cc3F)c(C(N)=O)cc21 [Compound 23] | 2 |
| Cn1cnc2c(F)c(Nc3ccc(I)cc3F)c(C(=O)NCCO)cc21 [Compound 25] | 122 |
| Cc1cc(I)ccc1Nc1c(CO)cc2c(ncn2C)c1F [Compound 28] | 566 |
| Cn1cnc2c(F)c(Nc3ccc(I)cc3F)c(C(=O)NCCCN)cc21 [Compound 31] | 1000 |
| Cn1cnc2c(F)c(Nc3ccc(I)cc3F)c(C(=O)NOCCO)cc21 [Compound 32] | 1.9 |
| Cn1cnc2c(F)c(Nc3ccc(I)cc3F)c(C(=O)NOC[C@H](O)CO)cc21 [Compound 34] | 22 |

The remaining lines, values ahead:

| IC50 [nM] | SMILES |
| --- | --- |
| 569 | Cn1cnc2c(F)c(Nc3ccc(I)cc3F)c(-c3nnc(NCCO)o3)cc21 [Compound 6] |
| 28 | CCCn1cnc2c(F)c(Nc3ccc(I)cc3C)c(C(=O)NOCC3CC3)cc21 [Compound 14] |
| 110 | Cc1cc(I)ccc1Nc1c(C(=O)NOCC2CC2)cc2c(ncn2CCCO)c1F [Compound 16] |
| 190 | CNCCONC(=O)c1cc2c(ncn2C)c(F)c1Nc1ccc(I)cc1C [Compound 20] |
| 41 | Cc1cc(I)ccc1Nc1c(C(N)=O)cc2c(ncn2C)c1F [Compound 22] |
| 556 | Cn1cnc2c(F)c(Nc3ccc(I)cc3F)c(C(=O)NCC(O)CO)cc21 (stereo not shown) [Compound 24] |
| 150 | Cn1cnc2c(F)c(Nc3ccc(I)cc3F)c(C(=O)NCCCO)cc21 [Compound 26] |
| 0.4 | Cn1cnc2c(F)c(Nc3ccc(I)cc3F)c(C(=O)NO)cc21 [Compound 30] |
| 8.85 | Cc1cc(I)ccc1Nc1c(C(=O)NOCC2CC2)cc2c(ncn2CC(O)CO)c1F (stereo not shown) [Compound 35] |
| 230 | CCc1ccc(Nc2c(C(=O)OC)cc3c(ncn3C)c2F)c(F)c1 [Compound 38] |
| 80 | Cn1cnc2c(F)c(Nc3ccc(I)cc3F)c(CO)cc21 [Compound 40] |

Tested on: phosphorylation of MAP kinase (ERK) in murine colon 26 (C26) carcinoma cells
Assay: Cellular assay for measuring MEK inhibition: inhibition of ERK phosphorylation, C26ELSA (pERK ELISA)
Assay type: cell-based
Conditions: Mus musculus, 1 h, C26 cells treated one hour with test compound
Description: as §1, §2, §3, §4

| IC50 [nM] | SMILES |
| --- | --- |
| 550 | Cn1cnc2c(F)c(Nc3ccc(I)cc3F)c(C(=O)NCCCO)cc21 [Compound 1] |
| 8.42 | Cn1cnc2c(F)c(Nc3ccc(I)cc3F)c(C(N)=O)cc21 [Compound 23] |
| 280 | CCc1ccc(Nc2c(C(N)=O)cc3c(ncn3C)c2F)c(F)c1 [Compound 42] |

Tested on: not given
Assay: not given
Conditions: not given

| melting point | SMILES |
| --- | --- |
| 265 to 268 °C (dec.) | Cn1cnc2c(F)c(Nc3ccc(I)cc3F)c(C(N)=O)cc21 [Example 2] |
| 258 to 260 °C | Cc1cc(I)ccc1Nc1c(-c2nnc(N)o2)cc2c(ncn2C)c1F [Example 4, [6-(5-amino-[1,3,4]oxadiazol-2-yl)-4-fluoro-1-methyl-1H-benzoimidazol-5-yl]-(4-iodo-2-methyl-phenyl)-amine] |

From patent US7160915B2, “N-methyl-substituted benzamidazoles” (Warner-Lambert Company, LLC, priority 2003, dated 2007)
